# In ChEMBL document CHEMBL4610081, “Anti-inflammatory Metabolites from Chaetomium nigricolor” (J Nat Prod, 2020):
# The source made the active and inactive calls. The calls are words filed in the database; no cut-off is given here.
# System: RAW264.7
# Assay: Antiinflammatory activity against mouse RAW264.7 cells assessed as inhibition of LPS-induced NO production preincubated for 3 hrs followed by LPS-stimulation and measured after 24 hrs by Griess reagent based assay
# Assay type: functional, cell-based
row,Structure (SMILES),Activity
1,O=C(O)c1ccc(CO)o1,inactive
2,NC(=O)c1coc(Cc2ccccc2)cc1=O,inactive
3,CC(=O)OCc1ccc(C(=O)O)o1,inactive
4,COc1cc(C)c2c(OC)cc(=O)oc2c1-c1c(OC)cc(C)c2c(OC)cc(=O)oc12,inactive
5,O=c1ccoc(Cc2ccccc2)c1,inactive
